Laboratory results reported in patent US20240376151A1, “STAPLED PEPTIDES AND METHODS THEREOF” (FOG PHARMACEUTICALS, INC., priority 2022, published 2024).
Peptide text beside a SMILES is read from it. * marks the point of attachment. 5FAM = O=C1OC2(c3ccc(O)cc3Oc3cc(O)ccc32)c2ccc(C(=O)*)cc21

Assays:
[1] = test system: Expi293 cells; assay: CellTiter-Glo cell health (ATP levels) during cell association assay; assay type: cell-based; settings: reflective of cell health, luminescence Tfinal (22 hours) / Tinitial
[2] = test system: Expi293 cells; assay: Measurement of the Cell Association of Helicons (mass spectrometry quantification in cells after treatment and wash); assay type: cell-based; settings: percentage of Helicons in cells after treatment and wash, 22 hours, n = 2, mean ± SD
Protocol: All samples were analyzed using mass spectrometry.

SMILES	CellTiter-Glo fold change ± SD [1]	Helicon in cells ± SD (%) [2]
CCCC[C@H](NC(=O)[C@@H](NC(C)=O)C(C)C)C(=O)N[C@@H](CCC(=O)O)C(=O)N[C@]1(C)CCCCCCC=CCCC[C@@](C)(C(=O)N[C@@H](Cc2c[nH]cn2)C(=O)N[C@@H](Cc2ccc(O)cc2)C(=O)N[C@H](C(N)=O)C(C)C)NC(=O)[C@H]([C@@H](C)CC)NC(=O)[C@H](Cc2ccccc2)NC(=O)[C@H](C)NC(=O)[C@H](C)NC(=O)[C@H](CCC(N)=O)NC(=O)[C@H](Cc2ccc(O)cc2)NC1=O (single isomer, unassigned) [FP07868, Ac-Val-nLeu-Glu-R8-Tyr-Gln-Ala-Ala-Phe-Ile-S5-His-Tyr-Val-NH2]	1.2 ± 0.10	10.3 ± 1.4%
CC[C@H](C)[C@H](NC(C)=O)C(=O)N[C@@H](CC(C)C)C(=O)N[C@@H](CCC(N)=O)C(=O)N[C@]1(C)CCCCCCC=CCCC[C@@](C)(C(=O)N[C@@H](Cc2c[nH]cn2)C(=O)N[C@@H](Cc2ccc(O)cc2)C(=O)N[C@@H](CCC(N)=O)C(N)=O)NC(=O)[C@H](CO)NC(=O)[C@H](Cc2ccccc2)NC(=O)[C@H](C)NC(=O)[C@H](C)NC(=O)[C@H](CCC(=O)O)NC(=O)[C@H](Cc2ccc(O)cc2)NC1=O (single isomer, unassigned) [FP07859, Ac-Ile-Leu-Gln-R8-Tyr-Glu-Ala-Ala-Phe-Ser-S5-His-Tyr-Gln-NH2]	1.2 ± 0.02	0.1 ± 0.0%
CCCC[C@H](NC(=O)[C@@H](NC(C)=O)C(C)C)C(=O)N[C@@H](CCC(=O)O)C(=O)N[C@]1(C)CCCCCCC=CCCC[C@@](C)(C(=O)N[C@@H](Cc2c[nH]cn2)C(=O)N[C@@H](Cc2ccc(O)cc2)C(=O)N[C@H](C(N)=O)C(C)C)NC(=O)[C@H]([C@@H](C)CC)NC(=O)[C@H](Cc2ccccc2)NC(=O)[C@H](C)NC(=O)[C@H](C)NC(=O)[C@H](CCC(=O)O)NC(=O)[C@H](Cc2ccc(O)cc2)NC1=O (single isomer, unassigned) [FP07855, Ac-Val-nLeu-Glu-R8-Tyr-Glu-Ala-Ala-Phe-Ile-S5-His-Tyr-Val-NH2]	1.2 ± 0.10	16.4 ± 0.6%
CCCC[C@H](NC(=O)[C@@H](NC(C)=O)C(C)C)C(=O)N[C@@H](CCC(N)=O)C(=O)N[C@]1(C)CCCCCCC=CCCC[C@@](C)(C(=O)N[C@@H](Cc2c[nH]cn2)C(=O)N[C@@H](Cc2ccc(O)cc2)C(=O)N[C@H](C(N)=O)C(C)C)NC(=O)[C@H]([C@@H](C)CC)NC(=O)[C@H](Cc2ccccc2)NC(=O)[C@H](C)NC(=O)[C@H](C)NC(=O)[C@H](CCC(N)=O)NC(=O)[C@H](Cc2ccc(O)cc2)NC1=O (single isomer, unassigned) [FP07872, Ac-Val-nLeu-Gln-R8-Tyr-Gln-Ala-Ala-Phe-Ile-S5-His-Tyr-Val-NH2]	1.1 ± 0.02	11.7 ± 1.6%
CC[C@H](C)[C@H](NC(=O)[C@H](Cc1ccc(O)cc1)NC(=O)[C@H](CCC(N)=O)NC(=O)[C@]1(C)CCCC=CCCCCCC[C@@](C)(NC(=O)[C@H](Cc2c[nH]cn2)NC(=O)[C@@H](NC(=O)[C@@H](NC(C)=O)[C@@H](C)CC)[C@@H](C)CC)C(=O)N[C@@H](Cc2ccc(O)cc2)C(=O)N[C@@H](CCC(=O)O)C(=O)N[C@@H](C)C(=O)N[C@@H](C)C(=O)N[C@@H](Cc2ccccc2)C(=O)N[C@@H](Cc2ccccc2)C(=O)N1)C(N)=O (single isomer, unassigned) [FP08012, Ac-Ile-Ile-His-R8-Tyr-Glu-Ala-Ala-Phe-Phe-S5-Gln-Tyr-Ile-NH2]	1.1 ± 0.04	5.4 ± 0.9%
CC(C)C[C@H](NC(=O)[C@H](C)NC(=O)CNC(=O)[C@H](CCCCN)NC(=O)[C@H](CCCNC(=N)N)NC(=O)[C@H](C)NC(=O)[C@H](Cc1ccccc1)NC(=O)[C@H](CCCNC(=N)N)NC(=O)[C@H](CCC(N)=O)NC(=O)c1ccc2c(c1)C(=O)OC21c2ccc(O)cc2Oc2cc(O)ccc21)C(=O)N[C@@H](CCCNC(=N)N)C(=O)N[C@@H](CCC(N)=O)C(=O)N[C@@H](CCCCN)C(=O)N[C@@H](CC(N)=O)C(=O)N[C@H](C(N)=O)C(C)C [FP47831, reference compound] (5FAM-QRFARKGALRQKNV-NH2)	1.1 ± 0.02	0.0 ± 0.0%
